According to ChEMBL document CHEMBL3758169, “4-Aminoindazolyl-dihydrofuro[3,4-d]pyrimidines as non-covalent inhibitors of mutant epidermal growth factor receptor tyrosine kinase” (Bioorg Med Chem Lett, 2016):
Values belong to the compound of their own block, whether it stands above or below them.

Assays:
[1] = molecular target: Ephrin type-A receptor 1 (Homo sapiens) (UniProt P21709); experiment: Inhibition of EPHA1 (unknown origin) at 100 nM
[2] = molecular target: Ephrin type-A receptor 7 (Homo sapiens) (UniProt Q15375); experiment: Inhibition of EPHA7 (unknown origin) at 100 nM
[3] = molecular target: Tyrosine-protein kinase Fgr (Homo sapiens) (UniProt P09769); experiment: Inhibition of FGR (unknown origin) at 100 nM
[4] = molecular target: Proto-oncogene tyrosine-protein kinase ROS (Homo sapiens) (UniProt P08922); experiment: Inhibition of ROS (unknown origin) at 100 nM
[5] = molecular target: Dual specificity protein kinase CLK2 (Homo sapiens) (UniProt P49760); experiment: Inhibition of CLK2 (unknown origin) at 100 nM
[6] = molecular target: Serine/threonine-protein kinase TAO3 (Homo sapiens) (UniProt Q9H2K8); experiment: Inhibition of TAO3 (unknown origin) at 100 nM
[7] = molecular target: Activin receptor type-1 (Homo sapiens) (UniProt Q04771); experiment: Inhibition of ALK2 (unknown origin) at 100 nM
[8] = molecular target: Serine/threonine-protein kinase 16 (Homo sapiens) (UniProt O75716); experiment: Inhibition of STK16 (unknown origin) at 100 nM
[9] = tested on: Receptor-type tyrosine-protein kinase FLT3 (Homo sapiens), P36888 [D835Y]; experiment: Inhibition of FLT3 D835Y mutant (unknown origin) at 100 nM
[10] = molecular target: Serine/threonine-protein kinase haspin (Homo sapiens) (UniProt Q8TF76); experiment: Inhibition of Haspin (unknown origin) at 100 nM
[11] = molecular target: Epithelial discoidin domain-containing receptor 1 (Homo sapiens) (UniProt Q08345); experiment: Inhibition of DDR1 (unknown origin) at 100 nM
[12] = molecular target: Fibroblast growth factor receptor 4 (Homo sapiens) (UniProt P22455); experiment: Inhibition of FGFR4 (unknown origin) at 100 nM
[13] = molecular target: LIM domain kinase 2 (Homo sapiens) (UniProt P53671); experiment: Inhibition of LIMK2 (unknown origin) at 100 nM
Homo sapiens = species on record: Homo sapiens; experiment: Inhibition of MET I250T mutant (unknown origin) at 100 nM
[14] = molecular target: cGMP-dependent protein kinase 1 (Homo sapiens) (UniProt Q13976); experiment: Inhibition of PKG1alpha (unknown origin) at 100 nM
[15] = molecular target: Fibroblast growth factor receptor 3 (Homo sapiens) (UniProt P22607); experiment: Inhibition of FGFR3 (unknown origin) at 100 nM
[16] = molecular target: Aurora kinase A (Homo sapiens) (UniProt O14965); experiment: Inhibition of Aurora A (unknown origin) at 100 nM
[17] = molecular target: Protein kinase C theta type (Homo sapiens) (UniProt Q04759); experiment: Inhibition of PKCtheta (unknown origin) at 100 nM
[18] = molecular target: Mitogen-activated protein kinase kinase kinase kinase 4 (Homo sapiens) (UniProt O95819); experiment: Inhibition of MAP4K4 (unknown origin) at 100 nM
[19] = molecular target: BDNF/NT-3 growth factors receptor (Homo sapiens) (UniProt Q16620); experiment: Inhibition of TRKB (unknown origin) at 100 nM
[20] = molecular target: MAP/microtubule affinity-regulating kinase 3 (Homo sapiens) (UniProt P27448); experiment: Inhibition of MARK3 (unknown origin) at 100 nM
[21] = molecular target: Serine/threonine-protein kinase NLK (Homo sapiens) (UniProt Q9UBE8); experiment: Inhibition of NLK (unknown origin) at 100 nM
[22] = molecular target: Serine/threonine-protein kinase PLK2 (Homo sapiens) (UniProt Q9NYY3); experiment: Inhibition of PLK2 (unknown origin) at 100 nM
[23] = molecular target: Serine/threonine-protein kinase DCLK2 (Homo sapiens) (UniProt Q8N568); experiment: Inhibition of DCAMKL2 (unknown origin) at 100 nM
[24] = Oral bioavailability in rat at 5 mg/kg; type: ADME, organism-based; conditions: in vivo
[25] = molecular target: Dual specificity mitogen-activated protein kinase kinase 2 (Homo sapiens) (UniProt P36507); experiment: Inhibition of MEK2 (unknown origin) at 100 nM
[26] = molecular target: Serine/threonine-protein kinase MARK2 (Homo sapiens) (UniProt Q7KZI7); experiment: Inhibition of MARK2 (unknown origin) at 100 nM
[27] = molecular target: PAS domain-containing serine/threonine-protein kinase (Homo sapiens) (UniProt Q96RG2); experiment: Inhibition of PASK (unknown origin) at 100 nM
[28] = molecular target: Serine/threonine-protein kinase MARK1 (Homo sapiens) (UniProt Q9P0L2); experiment: Inhibition of MARK1 (unknown origin) at 100 nM
[29] = molecular target: NT-3 growth factor receptor (Homo sapiens) (UniProt Q16288); experiment: Inhibition of TRKC (unknown origin) at 100 nM
[30] = molecular target: Mitogen-activated protein kinase 3 (Homo sapiens) (UniProt P27361); experiment: Inhibition of ERK1 (unknown origin) at 100 nM
[31] = molecular target: Phosphorylase b kinase gamma catalytic chain, liver/testis isoform (Homo sapiens) (UniProt P15735); experiment: Inhibition of PHKgamma2 (unknown origin) at 100 nM
[32] = molecular target: Muscle, skeletal receptor tyrosine-protein kinase (Homo sapiens) (UniProt O15146); experiment: Inhibition of MUSK (unknown origin) at 100 nM
[33] = molecular target: Protein kinase C beta type (Homo sapiens) (UniProt P05771); experiment: Inhibition of PKCbeta2 (unknown origin) at 100 nM
[34] = molecular target: Leukocyte tyrosine kinase receptor (Homo sapiens) (UniProt P29376); experiment: Inhibition of LTK (unknown origin) at 100 nM
[35] = molecular target: Macrophage-stimulating protein receptor (Homo sapiens) (UniProt Q04912); experiment: Inhibition of RON (unknown origin) at 100 nM
[36] = molecular target: Protein kinase C zeta type (Homo sapiens) (UniProt Q05513); experiment: Inhibition of PKCzeta (unknown origin) at 100 nM
[37] = molecular target: Maternal embryonic leucine zipper kinase (Homo sapiens) (UniProt Q14680); experiment: Inhibition of MELK (unknown origin) at 100 nM
[38] = molecular target: Dual specificity protein kinase CLK1 (Homo sapiens) (UniProt P49759); experiment: Inhibition of CLK1 (unknown origin) at 100 nM
[39] = molecular target: Serine/threonine-protein kinase PAK 1 (Homo sapiens) (UniProt Q13153); experiment: Inhibition of PAK1 (unknown origin) at 100 nM
[40] = molecular target: Serine/threonine-protein kinase 3 (Homo sapiens) (UniProt Q13188); experiment: Inhibition of MST2 (unknown origin) at 100 nM
[41] = molecular target: Cyclin-dependent kinase 5/CDK5 activator 1 (Homo sapiens) (UniProt Q00535+Q15078); experiment: Inhibition of CDK5/p35 (unknown origin) at 100 nM; type: protein-complex assay
[42] = molecular target: MAP/microtubule affinity-regulating kinase 4 (Homo sapiens) (UniProt Q96L34); experiment: Inhibition of MARK4 (unknown origin) at 100 nM
Hepatocyte = experiment: Drug metabolism in human hepatocytes assessed as glucuronidation; type: ADME, cell-based

Protein kinase C theta type (Homo sapiens), sequence (Q04759 whole entry, looked up): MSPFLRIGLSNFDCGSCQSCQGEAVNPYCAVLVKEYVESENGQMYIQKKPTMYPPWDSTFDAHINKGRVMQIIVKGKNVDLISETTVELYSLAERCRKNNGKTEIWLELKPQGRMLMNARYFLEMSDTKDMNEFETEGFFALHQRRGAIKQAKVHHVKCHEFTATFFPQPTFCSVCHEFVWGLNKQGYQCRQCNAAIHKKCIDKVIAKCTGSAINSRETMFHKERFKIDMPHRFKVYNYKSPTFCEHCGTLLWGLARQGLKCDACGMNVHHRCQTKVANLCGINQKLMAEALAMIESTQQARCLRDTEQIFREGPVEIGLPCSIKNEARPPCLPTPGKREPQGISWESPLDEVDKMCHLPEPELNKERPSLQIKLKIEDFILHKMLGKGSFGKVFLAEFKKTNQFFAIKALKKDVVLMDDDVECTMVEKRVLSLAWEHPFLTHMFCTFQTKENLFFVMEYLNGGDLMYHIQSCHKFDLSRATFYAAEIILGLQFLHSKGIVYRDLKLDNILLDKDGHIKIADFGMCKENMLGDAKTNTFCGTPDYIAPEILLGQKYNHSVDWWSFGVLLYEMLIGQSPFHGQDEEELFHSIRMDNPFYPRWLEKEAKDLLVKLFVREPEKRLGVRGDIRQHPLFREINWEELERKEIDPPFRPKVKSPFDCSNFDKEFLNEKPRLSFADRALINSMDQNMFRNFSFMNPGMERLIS
LIM domain kinase 2 (Homo sapiens), sequence (P53671 whole entry, looked up, the tested form may be a part): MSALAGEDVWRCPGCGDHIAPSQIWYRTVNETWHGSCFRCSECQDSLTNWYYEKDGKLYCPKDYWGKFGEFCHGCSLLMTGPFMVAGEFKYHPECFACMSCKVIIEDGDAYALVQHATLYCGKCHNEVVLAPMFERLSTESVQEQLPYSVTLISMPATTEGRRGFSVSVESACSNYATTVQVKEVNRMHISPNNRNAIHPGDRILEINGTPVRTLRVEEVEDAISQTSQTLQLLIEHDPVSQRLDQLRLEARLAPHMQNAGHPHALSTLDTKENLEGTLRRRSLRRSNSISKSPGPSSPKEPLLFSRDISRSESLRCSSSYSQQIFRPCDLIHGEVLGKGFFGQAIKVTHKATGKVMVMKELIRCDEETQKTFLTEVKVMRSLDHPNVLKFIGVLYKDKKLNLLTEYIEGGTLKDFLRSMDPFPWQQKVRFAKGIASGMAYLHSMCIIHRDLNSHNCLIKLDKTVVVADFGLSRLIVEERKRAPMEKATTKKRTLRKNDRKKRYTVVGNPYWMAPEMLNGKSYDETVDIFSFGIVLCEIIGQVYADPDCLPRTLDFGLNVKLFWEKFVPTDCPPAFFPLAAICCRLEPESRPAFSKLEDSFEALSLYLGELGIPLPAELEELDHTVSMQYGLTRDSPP
Serine/threonine-protein kinase PAK 1 (Homo sapiens), sequence (Q13153 whole entry): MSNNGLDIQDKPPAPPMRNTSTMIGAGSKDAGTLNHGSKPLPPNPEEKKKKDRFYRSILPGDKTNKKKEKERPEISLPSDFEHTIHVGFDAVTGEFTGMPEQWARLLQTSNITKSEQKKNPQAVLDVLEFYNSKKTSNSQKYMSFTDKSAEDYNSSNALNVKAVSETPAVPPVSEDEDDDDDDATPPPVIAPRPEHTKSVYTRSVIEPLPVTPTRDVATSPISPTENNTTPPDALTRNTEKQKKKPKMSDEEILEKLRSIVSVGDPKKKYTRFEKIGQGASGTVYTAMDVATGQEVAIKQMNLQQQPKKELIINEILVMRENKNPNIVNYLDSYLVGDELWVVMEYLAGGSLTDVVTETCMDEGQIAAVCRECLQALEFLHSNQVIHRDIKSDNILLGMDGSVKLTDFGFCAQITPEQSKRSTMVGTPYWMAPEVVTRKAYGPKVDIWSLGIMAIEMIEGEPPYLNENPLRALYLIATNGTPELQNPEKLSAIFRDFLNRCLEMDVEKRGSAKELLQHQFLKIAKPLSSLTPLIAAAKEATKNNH
Mitogen-activated protein kinase 3 (Homo sapiens), sequence (P27361 whole entry, canonical isoform): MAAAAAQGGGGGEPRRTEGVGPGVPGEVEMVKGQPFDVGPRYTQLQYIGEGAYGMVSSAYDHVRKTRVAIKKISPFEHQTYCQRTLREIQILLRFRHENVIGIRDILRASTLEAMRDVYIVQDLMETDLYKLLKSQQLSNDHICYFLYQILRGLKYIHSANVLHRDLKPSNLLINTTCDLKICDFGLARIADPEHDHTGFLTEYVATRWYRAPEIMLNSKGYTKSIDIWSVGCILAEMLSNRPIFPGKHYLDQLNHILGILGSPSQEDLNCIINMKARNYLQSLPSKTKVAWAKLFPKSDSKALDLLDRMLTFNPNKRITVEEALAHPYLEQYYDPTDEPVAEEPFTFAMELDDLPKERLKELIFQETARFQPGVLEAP
Serine/threonine-protein kinase NLK (Homo sapiens), sequence (Q9UBE8 whole entry): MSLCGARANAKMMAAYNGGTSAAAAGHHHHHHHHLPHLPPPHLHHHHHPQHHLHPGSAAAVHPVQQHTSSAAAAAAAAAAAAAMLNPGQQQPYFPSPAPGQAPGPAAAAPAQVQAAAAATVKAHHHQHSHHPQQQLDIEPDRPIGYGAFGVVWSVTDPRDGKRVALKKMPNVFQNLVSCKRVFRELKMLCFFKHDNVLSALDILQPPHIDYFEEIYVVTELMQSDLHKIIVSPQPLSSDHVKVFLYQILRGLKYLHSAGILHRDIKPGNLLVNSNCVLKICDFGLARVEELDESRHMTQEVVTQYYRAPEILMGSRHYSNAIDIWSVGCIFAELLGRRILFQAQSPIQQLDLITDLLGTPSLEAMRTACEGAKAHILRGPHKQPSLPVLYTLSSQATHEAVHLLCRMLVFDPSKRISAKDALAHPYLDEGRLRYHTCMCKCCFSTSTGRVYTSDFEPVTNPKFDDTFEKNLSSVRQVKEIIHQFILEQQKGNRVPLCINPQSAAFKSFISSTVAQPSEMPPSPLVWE
Serine/threonine-protein kinase 16 (Homo sapiens), sequence (O75716 whole entry): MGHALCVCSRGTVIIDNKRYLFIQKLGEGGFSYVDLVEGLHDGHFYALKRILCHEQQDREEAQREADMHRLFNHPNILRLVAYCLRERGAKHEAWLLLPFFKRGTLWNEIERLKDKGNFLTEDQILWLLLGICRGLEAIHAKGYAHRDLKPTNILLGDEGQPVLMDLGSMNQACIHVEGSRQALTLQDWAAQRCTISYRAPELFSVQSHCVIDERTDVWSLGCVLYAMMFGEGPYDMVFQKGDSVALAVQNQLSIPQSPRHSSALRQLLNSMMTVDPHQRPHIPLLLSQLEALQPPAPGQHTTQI
MAP/microtubule affinity-regulating kinase 4 (Homo sapiens), sequence (Q96L34 whole entry): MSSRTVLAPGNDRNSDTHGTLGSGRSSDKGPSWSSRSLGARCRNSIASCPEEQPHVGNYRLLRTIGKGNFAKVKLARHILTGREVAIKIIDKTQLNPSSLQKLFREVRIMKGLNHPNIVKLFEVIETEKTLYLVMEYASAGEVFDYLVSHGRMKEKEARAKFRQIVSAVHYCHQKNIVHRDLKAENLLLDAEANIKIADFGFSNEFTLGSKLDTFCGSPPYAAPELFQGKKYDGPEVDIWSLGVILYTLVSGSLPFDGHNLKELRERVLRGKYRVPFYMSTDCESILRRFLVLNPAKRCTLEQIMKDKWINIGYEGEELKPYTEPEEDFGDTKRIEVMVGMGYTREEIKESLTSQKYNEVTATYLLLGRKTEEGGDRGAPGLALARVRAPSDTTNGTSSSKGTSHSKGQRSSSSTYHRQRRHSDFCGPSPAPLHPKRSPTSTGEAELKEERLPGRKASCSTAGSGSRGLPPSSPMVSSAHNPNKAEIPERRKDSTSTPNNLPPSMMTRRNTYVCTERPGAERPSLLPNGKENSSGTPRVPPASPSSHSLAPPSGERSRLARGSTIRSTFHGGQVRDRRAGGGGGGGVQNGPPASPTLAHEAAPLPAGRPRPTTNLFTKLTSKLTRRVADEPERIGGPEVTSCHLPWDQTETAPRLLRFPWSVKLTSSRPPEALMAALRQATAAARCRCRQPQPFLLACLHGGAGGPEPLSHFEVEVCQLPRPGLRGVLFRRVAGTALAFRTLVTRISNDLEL
Epithelial discoidin domain-containing receptor 1 (Homo sapiens), sequence (Q08345 whole entry, the tested form may be a part): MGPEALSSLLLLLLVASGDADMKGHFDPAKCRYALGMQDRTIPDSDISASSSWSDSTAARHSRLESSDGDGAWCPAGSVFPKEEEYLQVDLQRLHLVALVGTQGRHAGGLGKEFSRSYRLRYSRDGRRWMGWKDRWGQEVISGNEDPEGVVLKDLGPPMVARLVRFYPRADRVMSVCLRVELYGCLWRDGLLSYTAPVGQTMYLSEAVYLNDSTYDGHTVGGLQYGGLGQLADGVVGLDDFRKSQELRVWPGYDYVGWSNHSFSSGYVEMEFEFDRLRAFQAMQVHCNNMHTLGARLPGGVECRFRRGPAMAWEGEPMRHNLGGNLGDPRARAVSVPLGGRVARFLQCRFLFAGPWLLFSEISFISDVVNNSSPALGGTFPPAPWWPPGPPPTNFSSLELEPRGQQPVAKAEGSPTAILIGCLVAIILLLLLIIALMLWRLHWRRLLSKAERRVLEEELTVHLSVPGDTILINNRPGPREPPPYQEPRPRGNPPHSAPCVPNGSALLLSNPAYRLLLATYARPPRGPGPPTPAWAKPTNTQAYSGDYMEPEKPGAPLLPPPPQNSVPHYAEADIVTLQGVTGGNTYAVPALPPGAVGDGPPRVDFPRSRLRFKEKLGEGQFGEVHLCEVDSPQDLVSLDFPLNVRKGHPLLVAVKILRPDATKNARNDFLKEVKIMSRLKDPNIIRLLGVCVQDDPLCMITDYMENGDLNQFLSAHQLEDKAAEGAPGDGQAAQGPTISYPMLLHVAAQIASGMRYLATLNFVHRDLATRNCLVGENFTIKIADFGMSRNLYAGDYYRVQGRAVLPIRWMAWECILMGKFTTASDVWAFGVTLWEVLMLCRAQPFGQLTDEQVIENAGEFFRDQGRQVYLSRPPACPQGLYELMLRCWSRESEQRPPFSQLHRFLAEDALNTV

inhibition [1]: 16.1%
inhibition [2]: 35.9%
inhibition [3]: 83.7%
inhibition [4]: 11.4%
inhibition [5]: -3.6%
inhibition [6]: 6.2%
inhibition [7]: 30.3%
inhibition [8]: 29.5%
inhibition [9]: 24.8%
inhibition [10]: 8.1%
inhibition [11]: 52.6%
inhibition [12]: 14.7%
inhibition [13]: -2.1%
inhibition (Homo sapiens): 4%
inhibition [14]: 3.4%
inhibition [15]: 18.4%
inhibition [16]: -5.4%
inhibition [17]: 4.5%
inhibition [18]: 51.3%
inhibition [19]: -1.4%
inhibition [20]: 8.4%
inhibition [21]: -0.6%
inhibition [22]: 5.5%
inhibition [23]: 1.8%
bioavailability [24]: 13%
inhibition [25]: 12.8%
inhibition [26]: -5.3%
inhibition [27]: 1.2%
inhibition [28]: -1.8%
inhibition [29]: 14.5%
inhibition [30]: 10.9%
inhibition [31]: -2.9%
inhibition [32]: 3.5%
inhibition [33]: 11.4%
inhibition [34]: 32%
inhibition [35]: 3.8%
inhibition [36]: 7.2%
inhibition [37]: 12.3%
inhibition [38]: 7.3%
inhibition [39]: -4.1%
inhibition [40]: -2.4%
inhibition [41]: 3.1%
inhibition [42]: 2.5%
SMILES: CC1(C)OCc2c(Nc3n[nH]c4ccccc34)nc(-c3cn[nH]c3)nc21

Drug metabolism (Hepatocyte): metabolite_detected
SMILES: CC1(C)OCc2c(Nc3n[nH]c4c(Cl)cccc34)nc(-c3cn[nH]c3)nc21
